The record followed here is US9718790B2, “Triazine derivative and pharmaceutical composition having an analgesic activity comprising the same” (SHIONOGI & CO., LTD., priority 2010, dated 2017).

Molecules are shown by their SMILES.

One may read the IC50 as the midpoint of a concentration-inhibition curve.

human P2X3 receptor, sequence (P56373 whole entry): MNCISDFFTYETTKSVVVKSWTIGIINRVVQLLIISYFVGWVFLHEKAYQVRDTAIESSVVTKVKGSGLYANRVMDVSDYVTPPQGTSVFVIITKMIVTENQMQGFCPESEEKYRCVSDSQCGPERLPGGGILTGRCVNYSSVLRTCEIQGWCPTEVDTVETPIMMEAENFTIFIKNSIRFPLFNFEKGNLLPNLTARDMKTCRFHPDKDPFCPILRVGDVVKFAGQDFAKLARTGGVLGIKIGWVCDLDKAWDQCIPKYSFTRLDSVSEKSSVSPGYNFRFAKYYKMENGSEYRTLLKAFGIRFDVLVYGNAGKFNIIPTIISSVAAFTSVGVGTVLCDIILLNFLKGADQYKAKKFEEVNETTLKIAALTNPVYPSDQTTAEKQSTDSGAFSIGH

The first experiment concerns the target human P2X3 receptor (Homo sapiens (Human), UniProt P56373). The experiment can be described thus: Evaluation of human P2X3 receptor inhibitory activity (Fluo-3 calcium fluorescence, FDSS 3000, ATP stimulation).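 Note: stimulus was 50 nM ATP with fluorescence followed for 3 min, and the response per well was peak post-ATP fluorescence divided by the reading at measurement start.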 It counts as cell-based. The following applies: C6BU-1 cells stably expressing human P2X3 receptor.
Consider `Cc1cc(/N=c2\[nH]c(=O)n(C[C@@H](C)C(=O)O)c(=O)n2CC2CCCCC2)ccc1OC(C)C` [Compound I-0647], for which the IC50 turned out to be 316 nM. For the compound `CCn1c(=O)[nH]/c(=N\c2ccc(Oc3nc(OC)nc(OC)n3)cc2)n(Cc2ccc(Cl)cc2)c1=O` [Compound I-2220], the IC50 came to 37 nM. For the compound `CCn1c(=O)[nH]/c(=N\c2ccc(Oc3ccnc(C(=O)OC)c3)cc2)n(CC2CCC(C)(C)CC2)c1=O` [Compound I-2205], the IC50 amounted to 9 nM. As to `CC(C)Oc1ccc(/N=c2\[nH]c(=O)n([C@H](C)[C@H](C)C(=O)O)c(=O)n2Cc2ccc(Cl)cc2)cc1Cl` [Compound I-1342], the IC50 came out at 10 nM.

For the compound `COC(=O)C(C)(C)n1c(=O)[nH]/c(=N\c2ccc(OC(C)C)c(Cl)c2)n(Cc2ccc(Cl)cc2)c1=O` [Compound I-0640], the IC50 worked out at 5 nM. The same measure, in the same setting: the result for `CCCc1ccc(/N=c2\[nH]c(=O)n(C[C@H](C)C(=O)O)c(=O)n2Cc2ccc(C)cc2)cc1C` [Compound I-1212] reads 90 nM; that for `CCn1c(=O)[nH]/c(=N\c2ccc(Oc3cccc4[nH]ncc34)c(Cl)c2)n(Cc2ccc(Cl)cc2)c1=O` [Compound I-2196], 446 nM; that for `Cc1ccc(Cn2c(=O)n([C@@H](C)[C@@H](C)C(=O)O)c(=O)[nH]/c2=N\c2ccc3oc(C)cc3c2)cc1` [Compound I-1353], 41 nM. Still for that read-out and setting: with `CCn1c(=O)[nH]/c(=N\c2ccc(Oc3nc(C)c(C(=O)O)s3)cc2)n(Cc2ccc(Cl)cc2)c1=O` [Compound I-2151] the figure was 12 nM; with `Cc1ccc(Cn2c(=O)n(CC(C)(C)C(=O)O)c(=O)[nH]/c2=N\c2ccc(OCC3CC3)cc2)cc1` [Compound I-1268], 52 nM; with `Cc1ccc(Cn2c(=O)n(C[C@H](C)C(=O)O)c(=O)[nH]/c2=N\c2ccc(CCC3CC3)cc2)cc1` [Compound I-1214], 70 nM. Regarding `C[C@@H](Oc1ccc(/N=c2\[nH]c(=O)n(CCC(=O)NCC(F)(F)F)c(=O)n2Cc2ccc(Cl)cc2)cc1)C(F)(F)F` [Compound I-1958], the IC50 worked out at 16 nM. With `CCn1c(=O)[nH]/c(=N\c2ccc(Oc3ccnc(C(N)=O)c3)cc2)n(CC2CCC3(CC2)CC3)c1=O` [Compound I-2176], the IC50 was 4 nM. Consider `Cc1nc2ccc(/N=c3\[nH]c(=O)n(C[C@H](O)CO)c(=O)n3CC3CCC(C)CC3)cc2s1` (stereo partly shown) [Compound I-2097], for which the IC50 stood at 5 nM.

On to `COC(=O)[C@@H](C)Cn1c(=O)[nH]/c(=N\c2ccc(OC(C)C)c(Cl)c2)n(Cc2ccc(C)cc2)c1=O` [Compound I-0593], for which the IC50 came out at 4 nM. Same read-out and setting: the result for `CCn1c(=O)[nH]/c(=N\c2ccc(Oc3ccccc3C(=O)OC)cc2)n(Cc2ccc(Cl)cc2)c1=O` [Compound I-1988] reads 391 nM; that for `CC(C)Oc1ccc(/N=c2\[nH]c(=O)n(CCC(=O)O)c(=O)n2CC2CCCCCCC2)cc1F` [Compound I-1916], 995 nM. `COC(=O)[C@H](C)[C@H](C)n1c(=O)[nH]/c(=N\c2ccc(OC(C)C)c(Br)c2)n(Cc2ccc(C)cc2)c1=O` [Compound I-1307]: the IC50 was found to be 7 nM. On the same count and under the same terms, the result for `COc1cc(/N=c2\[nH]c(=O)n([C@@H](C)[C@@H](C)C(=O)O)c(=O)n2Cc2ccc(C)cc2)ccc1CC(C)C` [Compound I-1367] reads 14 nM; that for `COC(=O)CCCn1c(=O)[nH]/c(=N\c2ccc3nc(C)sc3c2)n(Cc2ccc(Cl)cc2)c1=O` [Compound I-2142], 6 nM. On to `C[C@@H](Oc1ccc(/N=c2\[nH]c(=O)n(CCC(=O)O)c(=O)n2Cc2ccc(Cl)cc2)cc1)C(F)(F)F` [Compound I-1908], for which the IC50 was found to be 70 nM.

For `Cc1nc2ccc(/N=c3\[nH]c(=O)n(CCNCCO)c(=O)n3Cc3ccc(Cl)cc3)cc2s1` [Compound I-2163], the IC50 was 54 nM. In the case of `COC(=O)[C@@H](C)Cn1c(=O)[nH]/c(=N\c2ccc(Oc3cc(C)nc(C)c3)cc2)n(Cc2ccc(C)cc2)c1=O` [Compound I-1240], the IC50 was found to be 18 nM. For the compound `COC(=O)[C@@H](C)[C@@H](C)n1c(=O)[nH]/c(=N\c2ccc(N3CCCCC3)cc2)n(Cc2ccc(C)cc2)c1=O` [Compound I-1455], the IC50 came to 32 nM.

The experiment is the same for the next values; noted with them: C6BU-1 cells stably expressing human P2X3 receptor, Fluo-3 fluorescence, FDSS 3000.
With `COC(=O)[C@H](C)[C@H](C)n1c(=O)[nH]/c(=N\c2ccc3oc4ccccc4c3c2)n(Cc2ccc(Cl)cc2)c1=O` [Compound I-1827], the IC50 came to 913 nM. Consider `Cc1ccc(Cn2c(=O)n(C[C@H](C)C(=O)O)c(=O)[nH]/c2=N\c2ccc(CN(C)C)c(Cl)c2)cc1` [Compound I-1177], for which the half-maximal inhibitory concentration (IC50) is 273 nM.

On to `CCn1c(=O)[nH]/c(=N\c2ccc(Oc3ccc(NC(C)=O)cc3)cc2)n(Cc2ccc(Cl)cc2)c1=O` [Compound I-1871], for which the IC50 was determined as 6 nM. Still for that read-out and setting: the result for `COC(=O)Cn1c(=O)[nH]/c(=N\c2ccc(Oc3ccc(C)nc3)cc2)n(Cc2ccc(Cl)cc2)c1=O` [Compound I-1904] reads 8 nM.

In the case of `CCn1c(=O)[nH]/c(=N\c2ccc(Oc3cncc(C(=O)OC)c3)cc2)n(Cc2ccc(Cl)cc2)c1=O` [Compound I-1863], the IC50 came out at 5 nM. On to `CCOC(=O)CCn1c(=O)[nH]/c(=N\c2ccc(O[C@H](C)CC)c(Cl)c2)n(Cc2ccc(C)cc2)c1=O` [Compound I-1020], for which the IC50 came out at 6 nM.

`CCn1c2ccccc2c2cc(/N=c3\[nH]c(=O)n([C@@H](C)[C@@H](C)C(=O)O)c(=O)n3Cc3ccc(Cl)cc3)ccc21` [Compound I-1815]: the IC50 is 367 nM.

With `Cc1cc(Oc2ccc(/N=c3\[nH]c(=O)n(C[C@H](C)C(=O)O)c(=O)n3Cc3ccc(Cl)cc3)cc2)no1` [Compound I-1662], the IC50 was 11 nM. For `CCOC(=O)C1(Cn2c(=O)[nH]/c(=N\c3ccc(OCC4CC4)cc3)n(Cc3ccc(C)cc3)c2=O)CC1` [Compound I-0913], the IC50 turned out to be 9 nM. `CCOc1ccc(/N=c2\[nH]c(=O)n(C[C@H](C)C(=O)OC)c(=O)n2Cc2ccc(C)cc2)cc1Br` [Compound I-1173]: the IC50 was found to be 9 nM. `CCCOc1ccc(/N=c2\[nH]c(=O)n(CC3(C(=O)OCC)CC3)c(=O)n2Cc2ccc(Cl)cc2)cc1` [Compound I-0919]: the 50% inhibitory concentration (IC50) was 14 nM. For the compound `COC(=O)[C@@H](C)Cn1c(=O)[nH]/c(=N\c2ccc(N3CCCCC3)cc2)n(Cc2ccc(Cl)cc2)c1=O` [Compound I-0954], the IC50 was 23 nM. Turning to `C[C@@H](C(=O)O)[C@H](C)n1c(=O)[nH]/c(=N\c2ccc3ncccc3c2)n(Cc2ccc(Cl)cc2)c1=O` [Compound I-1834], the IC50 came to 325 nM. `Cc1cc(Oc2ccc(/N=c3\[nH]c(=O)n(CC(=O)O)c(=O)n3Cc3ccc(Cl)cc3)cc2)ccn1` [Compound I-1800]: the IC50 was 510 nM. Regarding `Cc1cc(/N=c2\[nH]c(=O)n(C[C@H](C)C(=O)O)c(=O)n2Cc2ccc(Cl)cc2)ccc1C#CC1CC1` [Compound I-1042], the IC50 turned out to be 148 nM.

On to `C/C=C\c1ccc(Cn2c(=O)n(C[C@H](C)C(=O)OC)c(=O)[nH]/c2=N\c2ccc(OC(C)C)cc2)cc1` [Compound I-1142], for which the IC50 amounted to 802 nM. Still for that read-out and setting: with `COC(=O)[C@@H](C)Cn1c(=O)[nH]/c(=N\c2ccc(OC(C)C)c(C)c2)n(Cc2ccc(C(C)C)cc2)c1=O` [Compound I-0997] the figure was 680 nM.

Staying with this experiment, now noted: human P2X3 receptor, Test Example 1.
For `CC(CO)(CO)Cn1c(=O)[nH]/c(=N\c2ccc(Oc3ccon3)c(F)c2)n(Cc2ccc(F)cc2)c1=O` [Compound I-2574], the IC50 amounted to 11 nM. In the case of `Cc1cncc(Oc2ccc(/N=c3\[nH]c(=O)n(CC(CO)CO)c(=O)n3Cc3ccc(Cl)cc3)cc2)n1` [Compound I-2709], the IC50 was determined as 6 nM. Consider `CC1(C)OC[C@H](Cn2c(=O)[nH]/c(=N\c3ccc(Oc4ccon4)cc3)n(Cc3ccc(Cl)cc3)c2=O)O1` [Compound I-2289], for which the IC50 was below 4 nM. `CCn1c(=O)[nH]/c(=N\c2ccc3nc(OCC(=O)OC)sc3c2)n(Cc2ccc(Cl)cc2)c1=O` [Compound I-2324]: the IC50 amounted to 115 nM.

Consider `NC(=O)NC(=O)Cn1c(=O)[nH]/c(=N\c2ccc(Oc3ccon3)cc2)n(Cc2ccc(Cl)cc2)c1=O` [Compound I-2694], for which the IC50 is 3 nM. `Cc1nsc(Oc2ccc(/N=c3\[nH]c(=O)n(C[C@H](O)CO)c(=O)n3Cc3ccc(F)cc3)cc2)n1` [Compound I-2607]: the IC50 was determined as 20 nM. Turning to `CCn1c(SC)n/c(=N\c2ccc(Oc3cncc(C(=O)OC)c3)cc2)n(Cc2ccc(Cl)cc2)c1=O` [Compound I-2264, 1-(4-chlorobenzyl)-3-ethyl-4-methylthio-6-[4-(5-methoxycarbonyl-3-pyridyloxy)phenylimino]-1,3,5-triazine-2-(1H)-one], the IC50 was determined as 558 nM. Turning to `CCn1c(=O)[nH]/c(=N\c2ccc(Oc3cnc(C(=O)O)nc3)cc2)n(Cc2ccc(Cl)cc2)c1=O` [Compound I-2285], the IC50 is 15 nM. In the case of `CCn1c(=O)[nH]/c(=N\c2ccc(Sc3ccc(C(=O)OC)cc3)cc2)n(Cc2ccc(Cl)cc2)c1=O` [Compound I-2597], the IC50 is 215 nM. Still for that read-out and setting: with `Cc1cnc(Oc2ccc(/N=c3\[nH]c(=O)n(CC(=O)O)c(=O)n3Cc3ccc(Cl)cc3)cc2)s1` [Compound I-2624] the figure was 368 nM; with `CCOC(=O)CCn1c(=O)[nH]/c(=N\c2ccc3nc(C)sc3c2)n(Cc2ccc(Cl)cc2)c1=O` [Compound I-1518], 2 nM. As for `O=c1[nH]/c(=N\c2ccc(Oc3ccon3)c(F)c2)n(Cc2ccc(Cl)cc2)c(=O)n1CC(CO)CO` [Compound I-2439], the IC50 was 4 nM. Take `CC[C@@H](C)Oc1ccc(/N=c2\[nH]c(=O)n(C[C@H](C)C(=O)OC)c(=O)n2Cc2ccc(C)cc2)cc1` [Compound I-0824]: the IC50 worked out at 18 nM.

Turning to `CCn1c(=O)[nH]/c(=N\c2ccc(Oc3cccc(CCC(=O)OC)c3)cc2)n(Cc2ccc(Cl)cc2)c1=O` [Compound I-2225], the 50% inhibitory concentration (IC50) is 61 nM. Turning to `CCn1c(=O)[nH]/c(=N\c2ccc(Oc3ccnc(CN(C)C)c3)cc2)n(Cc2ccc(Cl)cc2)c1=O` [Compound I-2244], the IC50 turned out to be 59 nM.

As to `CCn1c(=O)[nH]/c(=N\c2ccc(Oc3ccnc(C(=O)NC)c3)c(OC)c2)n(Cc2ccc(Cl)cc2)c1=O` [Compound I-2251], the IC50 stood at 5 nM.

Consider `C[C@@H](Cn1c(=O)[nH]/c(=N\c2ccc(OCC(F)F)cc2)n(Cc2ccc(Cl)cc2)c1=O)C(=O)O` [Compound I-0848], for which the IC50 was 60 nM.
